{
  "source": "patent US9676734B2",
  "about": "“Compounds and methods” (VIRONOVA INFLUENZA AB, priority 2012, dated 2017)",
  "tested_on": "Caco2",
  "assay": "Caco2 permeability assay",
  "assay_type": "in vitro ADME",
  "conditions": "relative to Nucleozin",
  "description": "A Caco2 permeability assay was performed using the inventive compound VNFC 0009 as well as Nucleozin.",
  "data": [
    {"smiles": "Cc1onc(-c2ccccc2)c1C(=S)N1CCN(c2ccc([N+](=O)[O-])cc2Cl)CC1", "note": "[VNFC 0009, (4-(2-chloro-4-nitrophenyl)piperazin-1-yl)(5-methyl-3-phenylisoxazol-4-yl)methanethione]", "values": [
      {"measurement": "Caco2 permeability in the apical to basal direction, higher than that of Nucleozin", "setting": "apical to basal", "result": "about 30%"},
      {"measurement": "basal to apical Caco2 permeability, times lower than that of Nucleozin", "setting": "basal to apical", "result": "~7", "unit": "times"}
    ]}
  ]
}
